Experimental data reported in PubChem BioAssay AID602186 (Broad Institute, 2012).
The source made the active and inactive calls.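 How the source made its calls: active means compounds reducing C. glabrata growth on glycerol with a fitted half-effect dose within twice the top tested dose; inconclusive means flat curve with moderate growth loss, or an unreliable fit; inactive means the rest.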

Tests used:
[1] = test system: Candida glabrata growth in glycerol, OD600, 48 h; assay: Candida glabrata respiratory growth inhibition – glycerol medium, OD600, dry powder, dose response (AID 602186)
[2] = as above; details: Candida glabrata growth in glycerol, OD600, 48 h

SMILES: Cc1ccc(-c2nc3c(Cl)cc(Cl)cc3c(=O)n2O)cc1
- AC50 [1]: 1390 nM

SMILES: COc1ccc(-c2nnc(NC(=O)c3ccc(S(=O)(=O)N4CCCc5ccccc54)cc3)o2)cc1
- activity change, negative = inhibition ([2]; at 19.5 µM (top of the series)): -21.8% (inactive)

SMILES: O=C(NNC(=S)Nc1ccc(Cl)c(Cl)c1)c1ccccn1
- AC50 [1]: 119 nM

SMILES: Oc1c(CN2CCc3ccccc3C2)cc(Cl)c2cccnc12
- AC50 [1]: 13600 nM

SMILES: Oc1c(CN2CCN(c3ccccc3)CC2)cc(Cl)c2cccnc12
- activity change, negative = inhibition ([2]; at 23.5 µM (top of the series)): -34.4% (inactive)

SMILES: Cc1ccc(C(=O)Nc2nc(-c3ccccn3)cs2)cc1
- AC50 [1]: 3280 nM

SMILES: O=C(Nc1nnc(-c2ccc3c(c2)CCCC3)o1)c1ccc(Cl)cc1Cl
- activity change, negative = inhibition ([2]; at 19.5 µM (top of the series)): -18.1% (inactive)

SMILES: CCOC(=O)N1C(=O)C2(CCCCC2)N(c2ccc(C)cc2)C1=S
- AC50 [1]: 141 nM

SMILES: NC(=O)c1cccc(C(=O)Nc2nc(-c3ccc4c(c3)CCCC4)cs2)c1
- activity change, negative = inhibition ([2]; at 19.5 µM (top of the series)): 9.1% (inactive)

SMILES: O=C(Nc1nc(-c2ccccc2)cs1)c1ccc(Br)s1
- activity change, negative = inhibition ([2]; at 19.5 µM (top of the series)): -6.9% (inactive)

SMILES: C/C(=N\NC(=O)c1cc2ccccc2cc1O)c1ccccn1
- AC50 [1]: 8890 nM

SMILES: O=C(Nc1nc(-c2ccccn2)cs1)c1ccc(Cl)s1
- AC50 [1]: 1380 nM

SMILES: Cc1cc(C)n(-c2nc3ccccc3c(=O)n2OCC#N)n1
- activity change, negative = inhibition ([2]; at 19.5 µM (top of the series)): -19.2% (inactive)

SMILES: Oc1c(C(c2ccc(Cl)cc2)N2CCCC2)ccc2cccnc12 (centres undefined)
- AC50 [1]: 13400 nM

SMILES: Oc1c(C(c2ccccc2Cl)N2CCCCC2)ccc2cccnc12 (centres undefined)
- AC50 [1]: 9060 nM

SMILES: O=C(Nc1nc(-c2ccccn2)cs1)c1ccc(Br)s1
- AC50 [1]: 1200 nM

SMILES: O=C(Nc1nc(-c2ccccn2)cs1)c1ccccc1
- AC50 [1]: 11500 nM

SMILES: C=CCNC(=S)N/N=C(\C)c1ccccn1
- AC50 [1]: 508 nM

SMILES: Cc1ccc(C(=O)Nc2nnc(-c3ccccc3)o2)cc1C
- activity change, negative = inhibition ([2]; at 19.5 µM (top of the series)): 5.05% (inactive)

SMILES: CN1CCN(C(c2ccc(C(F)(F)F)cc2)c2ccc3cccnc3c2O)CC1 (centres undefined)
- AC50 [1]: 2960 nM

SMILES: O=C(Nc1nnc(-c2ccc3c(c2)CCCC3)o1)c1ccccc1
- AC50 [1]: 10300 nM

SMILES: O=C(Oc1c(Cl)cc(Cl)c2cccnc12)c1ccco1
- AC50 [1]: 617 nM

SMILES: O=C(Nc1nc(-c2ccc3c(c2)CCCC3)cs1)c1ccccc1
- activity change, negative = inhibition ([2]; at 19.5 µM (top of the series)): 25.4% (inactive)

SMILES: CCCC(=O)NC(c1cccs1)c1cc(Cl)c2cccnc2c1O (centres undefined)
- AC50 [1]: 2140 nM
